The target of one data set is T1, CAMK1G (1-320) (Homo sapiens, UniProt Q96NX5).
T1 construct: made in house; host or cells: E. coli BL21 (DE3) pLysS
Nature of the data set: STD-NMR fragment screening, CAMK1G. Particulars: for STD-NMR hit: 1 mM fragment, 20 µM protein, hit if peak in difference spectrum three times higher than local noise; for CAMK1G (STD-NMR hit flag): 1 = hit, 0 = no hit. It counts as binding. In a few lines: (§1)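 Saturation-transfer difference NMR was run at 25°C and 700 MHz with 20 µM protein, two fragments at 1 mM each, and 10% DMSO-d6. On-resonance saturation was at 0.5–0.6 ppm and off-resonance at 40 ppm, with a 3 s Gaussian-pulse train. A hit required a difference-spectrum peak at least three times the local noise.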

The next data set deals with T2, DOT1L (Homo sapiens, UniProt Q8TEK3).
T2 construct: made in house; host or cells: E. coli BL21 (DE3) pLysS
Nature of the data set: ITC validation, DOT1L. Particulars: 25°C, detection level >1 mM. The class given is binding. The procedure:
(§2) The protein was buffer exchanged into 50 mM HEPES, 100 mM NaCl, 2 mM MgCl2, and 1 mM TCEP at pH 7.4. The protein was concentrated to 50–100 µM, and DMSO was added to a final concentration of 5% (^V/V). The fragments were dissolved in DMSO to yield a 100 mM stock solution, which was further diluted with buffer to yield a 5 mM solution also containing 5% (^V/V) DMSO. A MicroCal iTC200 (Malvern) instrument was used with the measuring cell set to 25°C, while the cooling jacket was set to 15°C. After a 120 s initial delay following temperature equilibration, a first injection with 0.5 µl over 2 s was done. […] The measurement was conducted using a needle stirring speed of 1,000 rpm and a reference heat rate of 10 μcal/s. Experiments were aborted, when the measuring cell was unable to reach a heat rate greater than 9 μcal/s during equilibration. Affinities were averaged from duplicates.

A further data set deals with AAK1 (121-471) (Homo sapiens, UniProt Q2M2I8). Nature of the data set: STD-NMR fragment screening, AAK1. It counts as binding. Particulars: for STD-NMR hit: 1 mM fragment, 20 µM protein, hit if peak in difference spectrum three times higher than local noise; for AAK1 (STD-NMR hit flag): 1 = hit, 0 = no hit. In a few lines: as §1
Another data set addresses T3, IDO1 (1-435) (Homo sapiens, UniProt P14902).
T3 construct: His-tag of pET15b with TEV site (thrombin site replaced) (cleaved yes); made in house; host or cells: E. coli Rosetta 2 (DE3) pLysS
Nature of the data set: STD-NMR fragment screening, IDO1. The class given is binding. Particulars: for IDO1 (STD-NMR hit flag): 1 = hit, 0 = no hit. Summed up:
as §1

The target in the next data set is T4, DOT1L (1-416) (Homo sapiens, UniProt Q8TEK3).
T4 construct: made in house; host or cells: E. coli BL21 (DE3) pLysS
Nature of the data set: STD-NMR fragment screening, DOT1L. It counts as binding. Particulars: for DOT1L (STD-NMR hit flag): 1 = hit, 0 = no hit. Summed up:
as §1

Another data set addresses AAK1 (Homo sapiens, UniProt Q2M2I8). Nature of the data set: ITC validation, AAK1. It counts as binding. Particulars: for Kd / KD: ITC; for LE: LE=1/N⋅1.4⋅−log(KD); for LE / LELP: AAK1; for LELP: LELP= logP/LE. The procedure: as §2
For another data set, the target named is T5, CAMK1G (Homo sapiens, UniProt Q96NX5).
T5 construct: made in house; host or cells: E. coli BL21 (DE3) pLysS
Nature of the data set: ITC validation, CAMK1G. Particulars: for Kd: ITC, 25°C, 5% DMSO, pH 7.4, duplicates, 7405: fragment concentration reduced to 2 mM. The class given is binding. The procedure: as §2

In another data set the target is T6, IDO1 (Homo sapiens, UniProt P14902).
T6 construct: His-tag of pET15b with TEV site (thrombin site replaced) (cleaved yes); made in house; host or cells: E. coli Rosetta 2 (DE3) pLysS
Nature of the data set: ITC validation, IDO1. The class given is binding. The procedure:
(§3) The protein was buffer exchanged into 50 mM HEPES, 100 mM NaCl, 2 mM MgCl2, and 1 mM TCEP at pH 7.4. The protein was concentrated to 50–100 µM, and DMSO was added to a final concentration of 5% (^V/V). The fragments were dissolved in DMSO to yield a 100 mM stock solution, which was further diluted with buffer to yield a 5 mM solution also containing 5% (^V/V) DMSO. A MicroCal iTC200 (Malvern) instrument was used with the measuring cell set to 25°C, while the cooling jacket was set to 15°C. After a 120 s initial delay following temperature equilibration, a first injection with 0.5 µl over 2 s was done. Nineteen injections with 2 µl over 4 s were performed every 180 s ([Ruhmann et al., 2015]). The measurement was conducted using a needle stirring speed of 1,000 rpm and a reference heat rate of 10 μcal/s. Experiments were aborted, when the measuring cell was unable to reach a heat rate greater than 9 μcal/s during equilibration. Affinities were averaged from duplicates.

The nature of data set [1]: GSH stability assay (HPLC). The class given is physicochemical. Particulars: t1/2 > 20 h defined as sufficiently stable. The procedure:
A 500 µM fragment solution in PBS buffer pH 7.4, 10% acetonitrile and 200 µM indoprofen as an internal standard, was added to 10 mM GSH solution in a 1:2 ratio. The reaction temperature was 40°C. […] The reaction of fragments with GSH was determined by measuring the decreasing area under the curve (AUC) of the compound relative to the internal standard indoprofen. The gradient was chosen depending on the polarity of fragments to be either one of the following: […]

The target of another data set is JNK2 (Homo sapiens, UniProt P45984). Nature of the data set: ITC, JNK2. It counts as binding. The procedure:
as §3
(In general: In ITC the heat of successive injections is recorded.)

Another data set addresses JNK3 (Homo sapiens, UniProt P53779). Nature of the data set: ITC, JNK3. It counts as binding. The procedure: as §3
[2] abbreviates: 1 mM fragment, 20 µM protein, hit if peak in difference spectrum three times higher than local noise.
Setting [3] is: 25°C, 5% DMSO, pH 7.4, duplicates.
Setting [4] is: ITC, 25°C, 5% DMSO, pH 7.4, duplicates.

The record followed here is PMC8847695 (Frontiers in Chemistry, 2022).

“Also recorded” adds a separate entry of the source. Where only a bound is given, the exact number is not on record here.

One may read the Kd as the equilibrium constant for the complex coming apart. A low value points to tighter binding.

T3 sequence (P14902 whole entry): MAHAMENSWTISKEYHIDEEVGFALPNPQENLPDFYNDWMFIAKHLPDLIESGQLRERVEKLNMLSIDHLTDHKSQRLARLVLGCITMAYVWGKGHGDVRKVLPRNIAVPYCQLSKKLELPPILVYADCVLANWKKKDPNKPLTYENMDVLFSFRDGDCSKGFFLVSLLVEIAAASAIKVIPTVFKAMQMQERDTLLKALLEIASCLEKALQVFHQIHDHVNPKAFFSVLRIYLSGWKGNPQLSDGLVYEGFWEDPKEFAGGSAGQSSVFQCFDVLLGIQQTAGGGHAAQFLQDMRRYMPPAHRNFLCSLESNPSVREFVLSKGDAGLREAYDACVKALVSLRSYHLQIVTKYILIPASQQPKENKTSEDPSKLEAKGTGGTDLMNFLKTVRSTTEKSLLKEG
T6 sequence (P14902 whole entry): as above
T2 sequence (Q8TEK3 1-416): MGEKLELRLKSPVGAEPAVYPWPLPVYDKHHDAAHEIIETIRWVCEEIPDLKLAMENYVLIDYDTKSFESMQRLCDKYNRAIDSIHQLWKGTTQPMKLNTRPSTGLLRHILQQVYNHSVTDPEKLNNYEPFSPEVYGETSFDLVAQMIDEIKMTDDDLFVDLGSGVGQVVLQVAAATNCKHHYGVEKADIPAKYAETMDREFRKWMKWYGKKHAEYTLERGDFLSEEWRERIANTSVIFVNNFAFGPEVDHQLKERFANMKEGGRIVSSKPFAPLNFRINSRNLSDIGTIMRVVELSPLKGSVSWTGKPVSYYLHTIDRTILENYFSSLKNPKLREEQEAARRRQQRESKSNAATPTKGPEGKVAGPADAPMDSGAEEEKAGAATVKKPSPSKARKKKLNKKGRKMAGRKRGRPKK
T4 sequence (Q8TEK3 1-416): as above
T5 sequence (Q96NX5 1-320): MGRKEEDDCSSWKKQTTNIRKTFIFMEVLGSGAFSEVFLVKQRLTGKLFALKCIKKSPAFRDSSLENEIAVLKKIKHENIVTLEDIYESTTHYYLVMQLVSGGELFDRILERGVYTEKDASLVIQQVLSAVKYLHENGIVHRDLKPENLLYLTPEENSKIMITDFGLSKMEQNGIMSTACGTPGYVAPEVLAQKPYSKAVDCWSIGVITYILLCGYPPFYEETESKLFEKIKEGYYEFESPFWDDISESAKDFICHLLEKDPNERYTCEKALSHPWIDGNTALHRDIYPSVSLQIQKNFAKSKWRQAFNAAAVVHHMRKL
T1 sequence (Q96NX5 1-320): as above
AAK1 (121-471), sequence (Q2M2I8 46-315 limits assumed): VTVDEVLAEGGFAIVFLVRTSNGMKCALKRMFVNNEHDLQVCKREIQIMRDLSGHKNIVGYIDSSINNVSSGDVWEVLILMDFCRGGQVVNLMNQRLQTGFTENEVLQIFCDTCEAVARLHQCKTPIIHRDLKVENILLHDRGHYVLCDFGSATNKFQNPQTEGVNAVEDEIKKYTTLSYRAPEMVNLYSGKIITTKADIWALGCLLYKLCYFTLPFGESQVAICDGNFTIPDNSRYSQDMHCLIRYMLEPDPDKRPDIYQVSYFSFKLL
AAK1, sequence (Q2M2I8 46-315 limits assumed): as above
JNK3, sequence (P53779 whole entry, species assumed, the tested form may be a part): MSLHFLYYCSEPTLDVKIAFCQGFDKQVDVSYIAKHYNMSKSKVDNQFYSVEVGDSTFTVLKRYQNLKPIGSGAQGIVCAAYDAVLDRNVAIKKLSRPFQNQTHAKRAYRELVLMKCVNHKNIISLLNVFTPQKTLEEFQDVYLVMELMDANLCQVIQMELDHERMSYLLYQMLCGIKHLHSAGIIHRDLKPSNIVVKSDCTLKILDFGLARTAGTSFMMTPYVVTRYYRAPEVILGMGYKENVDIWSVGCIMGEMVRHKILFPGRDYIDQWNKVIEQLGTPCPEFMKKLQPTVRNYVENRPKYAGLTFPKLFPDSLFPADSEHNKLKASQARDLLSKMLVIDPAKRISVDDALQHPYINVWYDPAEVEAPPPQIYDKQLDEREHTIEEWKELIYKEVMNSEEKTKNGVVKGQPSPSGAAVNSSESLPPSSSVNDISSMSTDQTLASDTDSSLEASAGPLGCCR
JNK2, sequence (P45984 whole entry, species assumed): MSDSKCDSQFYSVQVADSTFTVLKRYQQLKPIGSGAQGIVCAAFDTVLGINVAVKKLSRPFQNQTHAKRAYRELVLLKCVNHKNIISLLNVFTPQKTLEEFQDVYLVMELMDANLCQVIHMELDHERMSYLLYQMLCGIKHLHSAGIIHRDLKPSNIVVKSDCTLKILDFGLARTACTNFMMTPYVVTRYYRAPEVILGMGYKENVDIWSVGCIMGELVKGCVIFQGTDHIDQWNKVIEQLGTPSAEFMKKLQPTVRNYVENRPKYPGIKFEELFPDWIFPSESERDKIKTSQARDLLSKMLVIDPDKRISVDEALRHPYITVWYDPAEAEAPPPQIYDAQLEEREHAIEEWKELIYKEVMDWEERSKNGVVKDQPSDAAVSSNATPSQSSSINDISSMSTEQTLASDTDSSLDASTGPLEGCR

`Brc1cnc2cnccn12` [Fragment 0120]: the STD-NMR hit result on CAMK1G (1-320) was “fragment hits”. Further, the “ITC validation (KD)” value at DOT1L is “None of these could be validated with ITC”.

Turning to `Cc1n[nH]c(C)c1I` [Fragment 0459], the STD-NMR hit result on AAK1 (121-471), at CAMK1G (1-320), at IDO1 (1-435) (setting [2]) and at DOT1L (1-416) (setting [2]) was “STD hit” in each case. The equilibrium dissociation constant (Kd) at AAK1 (setting [3]) was 18 µM; at CAMK1G it was 190 µM; at IDO1 (setting [4]), above 1000 µM. Besides, the KD entry at IDO1 (setting [4]) is given as “too low to derive reliable affinity determination”. Further, the “ITC validation (KD)” value at DOT1L is “None of these could be validated with ITC; also recorded: beyond the limits of ITC”.

The molecule `Nc1c(Cl)ccc(O)c1Cl` [Fragment 0471] registered an equilibrium dissociation constant (Kd) on AAK1 (setting [3]) of 90 µM. At AAK1, this molecule displayed an LE of 0.57 and an LELP of 4.03.

Regarding `Oc1nc2nc(Cl)ccc2[nH]1` [Fragment 0474], on AAK1 (setting [3]), the dissociation constant Kd is 180 µM. Besides, at AAK1, the LE is 0.48 and the LELP came to 1.90. The “stability with GSH (in words)” value in data set [1] was “sufficiently stable”.

At IDO1 (setting [4]), `Cn1c(=O)c2[nH]c(Cl)nc2n(C)c1=O` [Fragment 1216] registered a Kd of 390 µM. In addition, the LE on IDO1 (LE=1/N⋅1.4⋅−log(KD), IDO1) was 0.34. In addition, the LELP at IDO1 (LELP= logP/LE, IDO1) is given as −1.92. Also, in [1], the “stability with GSH (in words)” value is “sufficiently stable”.

Consider `Nc1c(Cl)ccc2nonc12` [Fragment 1217], for which the “stability with GSH (in words)” value in data set [1] is “sufficiently stable”.

With `Cc1c(Cl)cnc(N)c1Cl` [Fragment 7405], the affinity at CAMK1G, expressed as Kd, was 130 µM. Also, the “ITC validation (KD)” value at DOT1L is on record as “None of these could be validated with ITC”.

Consider `Nc1ccc2[nH]cnc2c1Br` [Fragment 7409], for which the Kd at AAK1 (setting [3]) amounted to 6 µM. Moreover, the LE was 0.67 on AAK1 and “over 0.4” at CAMK1G (LE=1/N⋅1.4⋅−log(KD), CAMK1G). The LELP on AAK1 was 2.86. Also, the “stability with GSH (in words)” value in data set [1] is given as “sufficiently stable”.

As for `Clc1ncnc2cc[nH]c12` [Fragment 9595, 4-chloro-5H-pyrrolo[3,2-d]pyrimidine], the STD-NMR hit entry on AAK1 (121-471) is “binds”. Further, the dissociation constant (Kd) at AAK1 (setting [3]) came out at 6 µM; on JNK2, 67 µM; at JNK3 it was 130 µM. For the same molecule, the “stability with GSH (in words)” value in data set [1] is “sufficiently stable”.

In turn, `Clc1ccnc2cc[nH]c12` [Fragment A1] showed a Kd on AAK1 (setting [3]) of 50 µM.

On AAK1 (setting [3]), `Clc1nccc2cc[nH]c12` [Fragment A2] came in with a Kd of 60 µM.

Turning to `c1cc2cc[nH]c2cn1` [Fragment A3], the KD result at AAK1 (setting [3]) is “completely abolished the affinity”. For the same molecule, on AAK1 (SAR analogs of 9595), the Kd is above 1000 µM.

With `Clc1ncnc2ccoc12` [Fragment A4], the Kd at AAK1 (setting [3]) was found to be 302 µM.

As to `Clc1ncnc2ccsc12` [Fragment A5], on AAK1 (setting [3]), the KD result is on record as “completely abolished the affinity”.

On AAK1 (setting [3]), `Clc1cccc2cc[nH]c12` [Fragment A6] showed a Kd of 170 µM.

On to `Nc1ncc(C(=O)O)cc1Br` [Fragment B02297655], for which, on AAK1 (121-471), the “AAK1 (STD-NMR hit flag)” value came out at 0. Moreover, the “CAMK1G (STD-NMR hit flag)” value on CAMK1G (1-320) was 0. Besides, the “IDO1 (STD-NMR hit flag)” value on IDO1 (1-435) came to 0. For the same molecule, the “DOT1L (STD-NMR hit flag)” value on DOT1L (1-416) is 0.

`CC(=O)CS(=O)(=O)c1cc(Cl)ccc1F` [Fragment B02297765]: at AAK1 (121-471), the “AAK1 (STD-NMR hit flag)” value came to 0. The “CAMK1G (STD-NMR hit flag)” value on CAMK1G (1-320) is on record as 0. The “IDO1 (STD-NMR hit flag)” value on IDO1 (1-435) came to 0. Besides, the “DOT1L (STD-NMR hit flag)” value on DOT1L (1-416) was found to be 0.

For the molecule `Cn1ncc(I)c1C(=O)NN` [Fragment B02297766], the “AAK1 (STD-NMR hit flag)” value on AAK1 (121-471) came to 0. In addition, the “CAMK1G (STD-NMR hit flag)” value at CAMK1G (1-320) was found to be 0. For the same molecule, the “IDO1 (STD-NMR hit flag)” value on IDO1 (1-435) worked out at 0. Moreover, on DOT1L (1-416), the “DOT1L (STD-NMR hit flag)” value was 0.
